Several values for one entry are separate records, joined by “and”; a condition that tells them apart may be missing. Equal values may be shown once. Inconclusive results and toxic doses are left out. Rule as the data show it: active = T/C of 150% or more; inactive = T/C below 125%.
Test system: L1210 leukemia ip in BDF1 mice, survival T/C
Test: NCI In Vivo Anticancer Drug Screen. Data for tumor model L1210 Leukemia (intraperitoneal) in B6D2F1 (BDF1) mice
Conditions: higher = longer survival
Procedure, shortened: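 Transplanted-tumor mice were given test agent; controls received vehicle only. Survival readings from the two groups were divided (treated over control).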

[1] = endpoint: mean survival time, dose: 100.0 mg/kg/injection, schedule: Q01DX001 (ip), vehicle: carboxymethylcellulose (CMC)
[2] = endpoint: mean survival time, dose: 200.0 mg/kg/injection, schedule: Q01DX001 (ip), vehicle: carboxymethylcellulose (CMC)

Measured: T/C

Cn1cnc([N+](=O)[O-])c1Sc1nc(N)nc2nc[nH]c12
116 % of control and 239 % of control: endpoint: mean survival time, dose: 25.0 mg/kg/injection, schedule: Q01DX001 (ip), vehicle: saline
active: endpoint: mean survival time, dose: 1.2 mg/kg/injection, schedule: Q01DX Z (ip), vehicle: saline 168 % of control | endpoint: mean survival time, dose: 1.2 mg/kg/injection, schedule: Q01DX Z (sc), vehicle: saline 166 % of control | endpoint: mean survival time, dose: 2.5 mg/kg/injection, schedule: Q01DX009 (ip), vehicle: saline 151 % of control and 159 % of control | endpoint: mean survival time, dose: 2.5 mg/kg/injection, schedule: Q01DX010 (ip), vehicle: saline 154 % of control and 155 % of control | endpoint: mean survival time, dose: 2.5 mg/kg/injection, schedule: Q01DX Z (ip), vehicle: saline 150 % of control | endpoint: mean survival time, dose: 5.0 mg/kg/injection, schedule: Q01DX009 (ip), vehicle: saline 156 % of control | endpoint: mean survival time, dose: 5.0 mg/kg/injection, schedule: Q01DX010 (ip), vehicle: saline 161 % of control and 163 % of control | endpoint: mean survival time, dose: 5.0 mg/kg/injection, schedule: Q01DX Z (ip), vehicle: saline 166 % of control | endpoint: mean survival time, dose: 5.0 mg/kg/injection, schedule: Q01DX Z (sc), vehicle: saline 209 % of control | endpoint: mean survival time, dose: 10.0 mg/kg/injection, schedule: Q01DX010 (ip), vehicle: saline 152 % of control | endpoint: mean survival time, dose: 20.0 mg/kg/injection, schedule: Q01DX006 (iv), vehicle: saline 153 % of control | endpoint: mean survival time, dose: 22.0 mg/kg/injection, schedule: Q01DX001 (ip), vehicle: carboxymethylcellulose (CMC) 166 % of control | endpoint: mean survival time, dose: 35.0 mg/kg/injection, schedule: Q01DX001 (ip), vehicle: carboxymethylcellulose (CMC) 174 % of control | endpoint: mean survival time, dose: 40.0 mg/kg/injection, schedule: Q01DX Z (oral), vehicle: saline 174 % of control | endpoint: mean survival time, dose: 52.0 mg/kg/injection, schedule: Q01DX001 (ip), vehicle: carboxymethylcellulose (CMC) 180 % of control | endpoint: mean survival time, dose: 78.0 mg/kg/injection, schedule: Q01DX001 (ip), vehicle: carboxymethylcellulose (CMC) 196 % of control | endpoint: mean survival time, dose: 80.0 mg/kg/injection, schedule: Q01DX Z (oral), vehicle: saline 163 % of control | endpoint: mean survival time, dose: 100.0 mg/kg/injection, schedule: Q01DX001 (ip), vehicle: saline 200 % of control and 254 % of control | endpoint: median survival time, dose: 2.5 mg/kg/injection, schedule: Q01DX009 (ip), vehicle: saline 150 % of control
inactive: endpoint: mean survival time, dose: 0.16 mg/kg/injection, schedule: Q#A X030 (oral), vehicle: saline 110 % of control | endpoint: mean survival time, dose: 0.31 mg/kg/injection, schedule: Q#A X030 (oral), vehicle: saline 106 % of control | endpoint: mean survival time, dose: 0.62 mg/kg/injection, schedule: Q#A X030 (oral), vehicle: saline 108 % of control | endpoint: mean survival time, dose: 0.9 mg/kg/injection, schedule: Q03DX005 (oral), vehicle: saline 101 % of control | endpoint: mean survival time, dose: 1.2 mg/kg/injection, schedule: Q01DX006 (iv), vehicle: saline 105 % of control | endpoint: mean survival time, dose: 1.2 mg/kg/injection, schedule: Q01DX Z (im), vehicle: saline 105 % of control | endpoint: mean survival time, dose: 1.25 mg/kg/injection, schedule: Q01DX010 (ip), vehicle: saline 112 % of control and 120 % of control | endpoint: mean survival time, dose: 1.25 mg/kg/injection, schedule: Q#A X030 (oral), vehicle: saline 113 % of control | endpoint: mean survival time, dose: 1.6 mg/kg/injection, schedule: Q01DX001 (oral), vehicle: saline 110 % of control | endpoint: mean survival time, dose: 1.9 mg/kg/injection, schedule: Q03DX005 (oral), vehicle: saline 106 % of control | endpoint: mean survival time, dose: 2.1 mg/kg/injection, schedule: Q07DX003 (oral), vehicle: saline 102 % of control | endpoint: mean survival time, dose: 2.5 mg/kg/injection, schedule: Q01DX006 (iv), vehicle: saline 109 % of control | endpoint: mean survival time, dose: 2.5 mg/kg/injection, schedule: Q01DX Z (im), vehicle: saline 100 % of control | endpoint: mean survival time, dose: 3.13 mg/kg/injection, schedule: Q01DX001 (oral), vehicle: saline 104 % of control and 108 % of control | endpoint: mean survival time, dose: 3.8 mg/kg/injection, schedule: Q03DX005 (oral), vehicle: saline 104 % of control | endpoint: mean survival time, dose: 4.3 mg/kg/injection, schedule: Q07DX003 (oral), vehicle: saline 106 % of control | endpoint: mean survival time, dose: 5.0 mg/kg/injection, schedule: Q01DX Z (oral), vehicle: saline 116 % of control | endpoint: mean survival time, dose: 6.0 mg/kg/injection, schedule: Q01DX001 (ip), vehicle: saline 109 % of control and 113 % of control | endpoint: mean survival time, dose: 6.25 mg/kg/injection, schedule: Q01DX001 (oral), vehicle: saline 102 % of control | endpoint: mean survival time, dose: 7.5 mg/kg/injection, schedule: Q03DX005 (oral), vehicle: saline 112 % of control | endpoint: mean survival time, dose: 8.7 mg/kg/injection, schedule: Q07DX003 (oral), vehicle: saline 113 % of control | endpoint: mean survival time, dose: 10.0 mg/kg/injection, schedule: Q01DX Z (oral), vehicle: saline 123 % of control | endpoint: mean survival time, dose: 12.5 mg/kg/injection, schedule: Q01DX001 (oral), vehicle: saline 110 % of control | endpoint: mean survival time, dose: 17.5 mg/kg/injection, schedule: Q07DX003 (oral), vehicle: saline 122 % of control | endpoint: mean survival time, dose: 20.0 mg/kg/injection, schedule: Q01DX009 (ip), vehicle: saline 114 % of control and 120 % of control | endpoint: mean survival time, dose: 160.0 mg/kg/injection, schedule: Q01DX Z (im), vehicle: saline 96 % of control | endpoint: mean survival time, dose: 160.0 mg/kg/injection, schedule: Q01DX Z (oral), vehicle: saline 111 % of control | endpoint: mean survival time, dose: 320.0 mg/kg/injection, schedule: Q01DX Z (oral), vehicle: saline 91 % of control | endpoint: mean survival time, dose: 640.0 mg/kg/injection, schedule: Q01DX Z (oral), vehicle: saline 86 % of control | endpoint: mean survival time, dose: 960.0 mg/kg/injection, schedule: Q03DX005 (oral), vehicle: saline 106 % of control | endpoint: mean survival time, dose: 1920.0 mg/kg/injection, schedule: Q03DX005 (oral), vehicle: saline 100 % of control | endpoint: median survival time, dose: 10.0 mg/kg/injection, schedule: Q01DX009 (ip), vehicle: saline 115 % of control | endpoint: median survival time, dose: 20.0 mg/kg/injection, schedule: Q01DX009 (ip), vehicle: saline 100 % of control and 118 % of control

S=C1SCN(C2CCCCC2)CN1C1CCCCC1
inactive: endpoint: mean survival time, dose: 100.0 mg/kg/injection, schedule: Q01DX009 (ip), vehicle: Klucel (hydroxypropylcellulose) (HPC) 94 % of control | endpoint: mean survival time, dose: 100.0 mg/kg/injection, schedule: Q04DX003 (ip), vehicle: Klucel (hydroxypropylcellulose) (HPC) 91 % of control | endpoint: mean survival time, dose: 200.0 mg/kg/injection, schedule: Q01DX009 (ip), vehicle: Klucel (hydroxypropylcellulose) (HPC) 95 % of control | endpoint: mean survival time, dose: 200.0 mg/kg/injection, schedule: Q04DX003 (ip), vehicle: Klucel (hydroxypropylcellulose) (HPC) 100 % of control | endpoint: mean survival time, dose: 400.0 mg/kg/injection, schedule: Q01DX009 (ip), vehicle: Klucel (hydroxypropylcellulose) (HPC) 94 % of control | endpoint: mean survival time, dose: 400.0 mg/kg/injection, schedule: Q04DX003 (ip), vehicle: Klucel (hydroxypropylcellulose) (HPC) 100 % of control

CC[N+](CC)(CC)CCCCCCCCCC[N+](CC)(CC)CC
inactive: endpoint: mean survival time, dose: 0.19 mg/kg/injection, schedule: Q01DX009 (ip), vehicle: water 100 % of control | endpoint: mean survival time, dose: 0.39 mg/kg/injection, schedule: Q01DX009 (ip), vehicle: water 95 % of control | endpoint: mean survival time, dose: 0.78 mg/kg/injection, schedule: Q01DX009 (ip), vehicle: water 90 % of control | endpoint: mean survival time, dose: 0.78 mg/kg/injection, schedule: Q04DX003 (ip), vehicle: saline 103 % of control

COC(=O)C1OC(n2cnc3c(Cl)ncnc32)C(OC(C)=O)C(OC(C)=O)C1OC(C)=O (configuration not stated)
inactive: endpoint: mean survival time, dose: 50.0 mg/kg/injection, schedule: Q01DX001 (ip), vehicle: carboxymethylcellulose (CMC) 100 % of control | [1] 108 % of control | [2] 103 % of control | endpoint: mean survival time, dose: 400.0 mg/kg/injection, schedule: Q01DX001 (ip), vehicle: carboxymethylcellulose (CMC) 97 % of control

CN(C(=N)N)c1ccc(C(=O)Oc2ccc([N+](=O)[O-])cc2)cc1
inactive: endpoint: mean survival time, dose: 50.0 mg/kg/injection, schedule: Q01DX009 (ip), vehicle: water 90 % of control | endpoint: mean survival time, dose: 100.0 mg/kg/injection, schedule: Q01DX009 (ip), vehicle: water 97 % of control and 105 % of control | endpoint: mean survival time, dose: 100.0 mg/kg/injection, schedule: Q04DX003 (ip), vehicle: water 103 % of control | endpoint: mean survival time, dose: 200.0 mg/kg/injection, schedule: Q01DX009 (ip), vehicle: water 96 % of control and 100 % of control | endpoint: mean survival time, dose: 200.0 mg/kg/injection, schedule: Q04DX003 (ip), vehicle: water 100 % of control

Nc1cccc(OCCCOc2ccccc2)c1
inactive: endpoint: mean survival time, dose: 100.0 mg/kg/injection, schedule: Q01DX001 (ip), vehicle: Klucel (hydroxypropylcellulose) (HPC) 94 % of control | endpoint: mean survival time, dose: 200.0 mg/kg/injection, schedule: Q01DX001 (ip), vehicle: Klucel (hydroxypropylcellulose) (HPC) 97 % of control | endpoint: mean survival time, dose: 400.0 mg/kg/injection, schedule: Q01DX001 (ip), vehicle: Klucel (hydroxypropylcellulose) (HPC) 94 % of control

CN(Cc1ccccc1)Cc1cc(CO)ccc1O
inactive: [1] 103 % of control | [2] 105 % of control

From PubChem BioAssay AID248 (DTP/NCI, 2004)
